Measured values taken from ChEMBL document CHEMBL1201862, “PubChem BioAssay data set” (2004).
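Step 1: Grow cells in 96-well plates. Step 2: Expose to compound for 48 hours at 5 concentrations. Step 3: Interpolate endpoints linearly; if unreached, use highest concentration. GI50 marks 50% less growth.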 Activity calls are given as the source filed them. Rule as the data show it: active = GI50 up to about 1.1 µM and inactive = higher.

Assays:
Assay in all cases: inhibition of tumour cell growth, NCI panel, 48 h
SNB-19 = system: SNB-19
M14 = system: M14
T47D = system: T47D
BT-549 = system: BT-549
Hs-578T = system: Hs-578T
DU-145 = system: DU-145
MDA-N = system: MDA-N
SK-MEL-5 = system: SK-MEL-5
786-0 = system: 786-0
SR = system: SR
NCI/ADR-RES = system: NCI/ADR-RES
PC-3 = system: PC-3
MDA-MB-231 = system: MDA-MB-231
Malme-3M = system: Malme-3M
SW-620 = system: SW-620
MDA-MB-435 = system: MDA-MB-435
MCF7 = system: MCF7
HOP-92 = system: HOP-92
SNB-75 = system: SNB-75

| SMILES | GI50 (SNB-19) | GI50 (M14) | GI50 (T47D) | GI50 (BT-549) | GI50 (Hs-578T) | GI50 (DU-145) | GI50 (MDA-N) | GI50 (SK-MEL-5) | GI50 (786-0) | GI50 (SR) | GI50 (NCI/ADR-RES) | GI50 (PC-3) | GI50 (MDA-MB-231) | GI50 (Malme-3M) | GI50 (SW-620) | GI50 (MDA-MB-435) | GI50 (MCF7) | GI50 (HOP-92) | GI50 (SNB-75) |
| --- | --- | --- | --- | --- | --- | --- | --- | --- | --- | --- | --- | --- | --- | --- | --- | --- | --- | --- | --- |
| CCCCNC(=O)c1cc(S(=O)(=O)n2ccnc2O)c(SC)cc1Cl | > 100 µM (inactive) | > 100 µM (inactive) | > 100 µM (inactive) | > 100 µM (inactive) | > 100 µM (inactive) | > 100 µM (inactive) | > 100 µM (inactive) | > 100 µM (inactive) | > 100 µM (inactive) | > 100 µM (inactive) | > 100 µM (inactive) | > 100 µM (inactive) | > 100 µM (inactive) | > 100 µM (inactive) | > 100 µM (inactive) | > 100 µM (inactive) | > 100 µM (inactive) |  |  |
| COC1(OC)c2no[n+]([O-])c2CCC1O (centres undefined) | > 100 µM (inactive) | > 100 µM (inactive) | > 100 µM (inactive) |  | > 100 µM (inactive) | > 100 µM (inactive) | > 100 µM (inactive) | > 100 µM (inactive) | > 100 µM (inactive) | > 100 µM (inactive) | > 100 µM (inactive) | > 100 µM (inactive) | > 100 µM (inactive) | > 100 µM (inactive) | > 100 µM (inactive) | > 100 µM (inactive) | > 100 µM (inactive) | 0.0255 µM (active) |  |
| Cc1ccc(S(=O)(=O)NCCSS(=O)(=O)c2ccc(C)cc2)cc1 | 72.9 µM (inactive) |  | 27.7 µM (inactive) |  | 96.4 µM (inactive) | 42.6 µM (inactive) | 23.1 µM (inactive) | 20.7 µM (inactive) |  | 13.9 µM (inactive) | 25.8 µM (inactive) | 27.6 µM (inactive) | 37.7 µM (inactive) |  | 19.5 µM (inactive) | 22.3 µM (inactive) | 22.3 µM (inactive) | > 100 µM (inactive) | 30.4 µM (inactive) |
| O=C(CCCn1cnc([N+](=O)[O-])n1)NCCn1ccnc1[N+](=O)[O-] |  | > 100 µM (inactive) | > 100 µM (inactive) | > 100 µM (inactive) | > 100 µM (inactive) | > 100 µM (inactive) | > 100 µM (inactive) | > 100 µM (inactive) |  | > 100 µM (inactive) |  | > 100 µM (inactive) |  |  | > 100 µM (inactive) |  | > 100 µM (inactive) | 61.7 µM (inactive) | > 100 µM (inactive) |
| C/C=C(/C)C(=O)O[C@H]1[C@H]2[C@@H]([C@@H](OC(C)=O)[C@H](C)C(=O)[C@@]34C[C@@H](C)C(=O)[C@]3(/C=C(\C)[C@H]1OC(C)=O)O4)C2(C)C | 4.32 µM (inactive) | 2.47 µM (inactive) | 2.31 µM (inactive) | 2.84 µM (inactive) | 5.64 µM (inactive) | 1.66 µM (inactive) | 1.27 µM (inactive) | 3.64 µM (inactive) | 2.67 µM (inactive) | 2.54 µM (inactive) | 4.12 µM (inactive) | 3.45 µM (inactive) | 3.72 µM (inactive) |  | 3.39 µM (inactive) | 2.99 µM (inactive) | 3.26 µM (inactive) | 3.08 µM (inactive) | 4.98 µM (inactive) |
| Cc1c(N2C(=O)/C(=C/c3ccc(N(CCC#N)CCC#N)cc3)N=C2c2ccccc2)c(=O)n(-c2ccccc2)n1C | > 100 µM (inactive) | > 100 µM (inactive) | > 100 µM (inactive) | > 100 µM (inactive) | > 100 µM (inactive) | > 100 µM (inactive) | > 100 µM (inactive) | > 100 µM (inactive) | > 100 µM (inactive) | > 100 µM (inactive) | > 100 µM (inactive) |  | > 100 µM (inactive) | > 100 µM (inactive) | > 100 µM (inactive) | > 100 µM (inactive) | > 100 µM (inactive) | > 100 µM (inactive) |  |
| COc1cccc(C2c3cc4c(cc3OC(NNS(=O)(=O)c3ccc(C)cc3)C2C)OCO4)c1O (centres undefined) | 28.3 µM (inactive) | 24.7 µM (inactive) | 18.2 µM (inactive) | 19.7 µM (inactive) | 12.8 µM (inactive) | 30.5 µM (inactive) | 24.5 µM (inactive) | 20.4 µM (inactive) | 0.537 µM (active) | 6.79 µM (inactive) |  | 12.4 µM (inactive) | 20.4 µM (inactive) | 23.8 µM (inactive) | 23 µM (inactive) | 23.4 µM (inactive) | 18.7 µM (inactive) | 33.8 µM (inactive) | 11.2 µM (inactive) |
| Cc1nc2ccccc2c(=O)n1/N=C(\N=N\c1ccc(Cl)cc1)c1cccc(-c2ccco2)c1 |  | 34.1 µM (inactive) |  |  |  |  |  | 18.9 µM (inactive) | 39.6 µM (inactive) |  |  |  |  |  | 42.5 µM (inactive) |  |  | 16.1 µM (inactive) |  |
| CS(C)(=O)=Nn1c(=O)n2n(c1=O)C1c3ccccc3C2c2ccccc21 | > 100 µM (inactive) | > 100 µM (inactive) | > 100 µM (inactive) |  |  | > 100 µM (inactive) | > 100 µM (inactive) | 43.7 µM (inactive) |  | > 100 µM (inactive) | > 100 µM (inactive) | > 100 µM (inactive) | > 100 µM (inactive) | > 100 µM (inactive) | > 100 µM (inactive) | > 100 µM (inactive) | > 100 µM (inactive) | > 100 µM (inactive) |  |
| Nc1nc2ccc3ccccc3c2[nH]1 | > 10 µM (inactive) | > 10 µM (inactive) | > 10 µM (inactive) |  | > 10 µM (inactive) | > 10 µM (inactive) | > 10 µM (inactive) | > 10 µM (inactive) |  | > 10 µM (inactive) | > 10 µM (inactive) | > 10 µM (inactive) | > 10 µM (inactive) | > 10 µM (inactive) | > 10 µM (inactive) | > 10 µM (inactive) | > 10 µM (inactive) |  | > 10 µM (inactive) |
| CCc1nnc2sc(-c3ccc(-c4ccc(Cl)cc4Cl)o3)nn12 | > 100 µM (inactive) | > 100 µM (inactive) | 18 µM (inactive) | 50 µM (inactive) | 74.8 µM (inactive) | 72.3 µM (inactive) | 66.5 µM (inactive) | 34.2 µM (inactive) | 32.9 µM (inactive) | 40.3 µM (inactive) | 50.2 µM (inactive) | 30.1 µM (inactive) | 35 µM (inactive) | > 100 µM (inactive) | > 100 µM (inactive) | > 100 µM (inactive) |  | 21.4 µM (inactive) | 21.3 µM (inactive) |
| O=c1c(-c2ccccc2)c(SCCN2CCOCC2)n(-c2ccccc2)c(=S)n1-c1ccccc1 |  |  |  | > 100 µM (inactive) | 62.2 µM (inactive) | > 100 µM (inactive) |  | > 100 µM (inactive) |  | > 100 µM (inactive) | > 100 µM (inactive) | > 100 µM (inactive) | 83.9 µM (inactive) | > 100 µM (inactive) | > 100 µM (inactive) | > 100 µM (inactive) | 80.9 µM (inactive) | 25.2 µM (inactive) | 26.4 µM (inactive) |
| N/C(S)=N/N=C/c1cc(CN2CCOCC2)c(N)cn1 | 47.1 µM (inactive) | 18.7 µM (inactive) | 85.9 µM (inactive) | 78.5 µM (inactive) | > 100 µM (inactive) | 28.6 µM (inactive) | 56.1 µM (inactive) | 35.2 µM (inactive) | 65.2 µM (inactive) | 44.4 µM (inactive) | 31 µM (inactive) | 56.9 µM (inactive) | 48.1 µM (inactive) | 31.3 µM (inactive) | 62.1 µM (inactive) | 70.3 µM (inactive) | 31.4 µM (inactive) |  | 25 µM (inactive) |
| Oc1ccc(Cl)cc1C1=NC(/N=C\c2ccccc2)=NC(c2ccccc2)C1 (centres undefined) |  | > 100 µM (inactive) | 13.3 µM (inactive) | > 100 µM (inactive) | > 100 µM (inactive) | > 100 µM (inactive) |  | 14.1 µM (inactive) | 19.1 µM (inactive) | 5.5 µM (inactive) | 21.4 µM (inactive) | > 100 µM (inactive) | 35.6 µM (inactive) |  | > 100 µM (inactive) | > 100 µM (inactive) | 7.83 µM (inactive) | > 100 µM (inactive) | 17.5 µM (inactive) |
| COc1ccc2c(O)c3[n+](cc2c1OC)CCc1cc2c(cc1-3)OCO2 | > 100 µM (inactive) | > 100 µM (inactive) | 88.3 µM (inactive) | 72.4 µM (inactive) | > 100 µM (inactive) | > 100 µM (inactive) | 33.6 µM (inactive) | 99.1 µM (inactive) |  | 39.3 µM (inactive) | > 100 µM (inactive) | > 100 µM (inactive) | > 100 µM (inactive) |  | 45.5 µM (inactive) | 24.8 µM (inactive) | 56.2 µM (inactive) | > 100 µM (inactive) | > 100 µM (inactive) |
| CC(=O)c1ccccc1NP(=O)(c1ccccc1)c1ccccc1 | > 100 µM (inactive) | 33.9 µM (inactive) | 43.3 µM (inactive) | > 100 µM (inactive) | 53.3 µM (inactive) | > 100 µM (inactive) | 36.9 µM (inactive) | 47.3 µM (inactive) | > 100 µM (inactive) | 60 µM (inactive) | 14.1 µM (inactive) | > 100 µM (inactive) | 32.5 µM (inactive) | 34 µM (inactive) | 97.7 µM (inactive) | 38.7 µM (inactive) | 64.6 µM (inactive) |  |  |
| Cc1ccc(-c2nc3cc(F)c(N4CCN(C)CC4)cc3[nH]2)cc1 | 22 µM (inactive) | 16.7 µM (inactive) | 23 µM (inactive) | 22.1 µM (inactive) | 10.7 µM (inactive) | 31.1 µM (inactive) | 32.4 µM (inactive) | 11.4 µM (inactive) | 17.6 µM (inactive) | 32.6 µM (inactive) | 28.8 µM (inactive) | 24.1 µM (inactive) | 71.3 µM (inactive) | 15.3 µM (inactive) | 37.1 µM (inactive) | 22.4 µM (inactive) | 15.3 µM (inactive) | 66.5 µM (inactive) |  |
